According to US20150366839A1, “Schisantherin A for the treatment of neurodegenerative diseases” (priority 2014, published 2015):
Where two headings read alike, the source gives them in different places.

Tests used:
[1] = test system: zebrafish larvae; type: in vivo
Protocol: (§1) The wild type zebrafish was used for this study.
Zebrafish behaviour was analyzed using a digital video tracking system (Viewpoint ZebraLab system). The system consists of a digital video camera connected to a computer system running the analysis software ZebraLab Man Rev 3.6B.
Moreover, 6-OHDA treatment also markedly altered the swimming behavior of zebrafish. […] Values in FIG. 9 represent the mean±SEM of 12 fish larvae per group of 3-time independent experiments. ###P<0.005 versus control group; *p<0.05, **p<0.01 and *** p<0.005 versus 6-OHDA group. […] The total swimming distance in 10 min travelled by the zebrafish larvae was decreased after exposure to 6-OHDA.

[2] = test system: DA neurons in zebrafish; test: Anti-TH whole-mount immunostaining, 6-OHDA-induced DA neuron loss; type: in vivo; settings: 3 μM positive control, 250 μM 6-OHDA, 2 days
Protocol: as §1
Zebrafish at one dpf were exposed to 250 μM 6-OHDA in the presence or absence of 10 μM Schi A or 3 μM nomifensine (Nom, a DAT (dopamine transporter) inhibitor used as a positive control) for 2 days. Then zebrafish were collected for immunostaining to detect the DA neurons. Zebrafish were fixed in 4% paraformaldehyde in PBS for 30 min, rinsed, and stored at −20° C. in 100% MtOH. Whole-mount immunostaining was done by standard methods (Zhang, Cheang et al. 2011). Briefly, paraformaldehyde fixed samples were blocked (2% goat serum and 0.1% BSA in PBST,) for 1 h at room temperature. A mouse monoclonal anti-tyrosine hydroxylase antibody (1:200 diluted in blocking buffer) was used as the primary antibody and incubated overnight with the sample at 4° C. […] Semi-quantification TH^+ cells were assessed by an investigator blinded to drug treatment history of zebrafish using Image-Pro Plus 6.0 software (Media Cybernetics, Silver Spring, Md., USA). Results are expressed as percentage of area of TH^+ cells in untreated control group.
To further evaluate the neuroprotective effect of SchiA in vivo, the inventors examined the DA neurons in zebrafish by whole-mount immunofluorescent staining with an antibody against tyrosine hydroxylase (TH). […] Data is expressed as percentage of the control group. […]

[3] = test system: SH-SY5Y cells; test: MTT neuroprotection against MPP+-induced cell damage; type: cell-based; settings: for protection against MPP+-induced cell damage (cell viability): various concentrations 12 h before MPP+
Protocol: (§2) Human neuroblastoma SH-SY5Y cells were purchased from the American Type Culture Collection (ATCC, Manassas, Va., USA) and cultured in a humidified 5% (v/v) CO2 atmosphere in 37° C. in Dulbecco's Modified Eagle Medium (DMEM) (Life technologies, NY, USA) supplemented with 10% FBS, 1% penicillin (100 U/mL) and streptomycin (100 μg/mL). All experiments were carried out 48 h after the cells were seeded.
In another study, SH-SY5Y cells were seeded in 96-well plates (1×10^4 cells/well) for 48 h. SH-SY5Y cells were pre-treated with different concentrations of the five lignans for 12 h and the cell viability was checked by MTT assay. SH-SY5Y cells were pre-treated with different concentrations of the five lignans for 12 h and then exposed to 2 mM MPP or vehicle for 36 h. Cells were incubated at 37° C. for 4 h in 0.5 mg/mL MTT solution (prepared in serum free DMEM medium). The medium was then discarded and 100 μL of DMSO was added to each well to dissolve the violet-formazan crystals. The absorbance at 570 nm with 655 nm as a reference wavelength was measured by a multi-label counter (Wallac VICTOR3TMV, Perkin Elmer, Netherlands). Cell viability was expressed as a percentage of the value of the cells without MPP treatment. The LC50 and EC50 were calculated by GraphPad Prism V5.0 (GraphPad Software, Inc., San Diego, Calif.).
(§3) To evaluate the cytotoxicity of five selected lignans of S. chinensis, SH-SY5Y cells were treated with various concentrations of the tested compounds for 12 h and the cell viability was measured using the MTT assay. […] To further study the neuroprotective activities of the five lignans in vitro, cells were treated with various concentrations of the tested compounds for 12 h before exposed to MPP^+. […] Values represent mean±S.D. ###P<0.005 versus control group; *p<0.05, **p<0.01 and *** p<0.005 versus MPP group. […] The therapeutic index of SchiA and SC were 14.9 and 8.8, respectively.
The inventors also investigated the contribution of the PI3K/Akt pathway in the neuroprotective effects of SchiA. The inventors measured phosphorylation-Akt (p-Akt) levels after pre-treated with 60 μM SchiA for 12 h and then exposed to 2 mM MPP for another 36 h. […] And MPP^+-induced down-regulation of Akt expressions was inhibited by SchiA treatment. […] To further validate whether the activation of PI3K/Akt signaling pathway, the inventors determined the blocking effect of PI3K/Akt inhibitor such as AKT inhibitor IV on the in vitro neuroprotective effect of SchiA. SH-SY5Y cells were pre-incubated with Akt inhibitor IV (2 μM) for 1 h and then treated with SchiA for 12 h. Drug-treated cells were further treated with 2 mM MPP for another 36 h, MTT assay was used to determinate cell viability.

[4] = test system: SH-SY5Y cells; test: MTT cytotoxicity of the five lignans; type: cell-based
Protocol: as §2
(§4) Cell viability was determined by 3-(4,5-dimethyl-2-thiazolyl) 2,5-diphenyl-2H-tetrazolium bromide (MTT) assay (Sigma-Aldrich, USA). SH-SY5Y cells were seeded in 96-well plates (1×10^4 cells/well) for 48 h. SH-SY5Y cells were pre-treated with different concentrations of the five lignans (i.e. Schizandrin A, Schizandrin B, SC, Schizandrol A and SchiA) for 12 h and the cell viability was checked by MTT assay. Otherwise, SH-SY5Y cells were pre-treated with different concentrations of the five lignans for 12 h and then exposed to 400 μM 6-OHDA for 4 h. Cells were incubated at 37° C. for 4 h in 0.5 mg/mL MTT solution (prepared in serum free DMEM medium). The medium was then removed, and 100 μL of DMSO was added to each well to dissolve the violet-formazan crystals. The absorbance at 570 nm with 655 nm as a reference wavelength was measured by a multi-label counter (Wallac VICTOR3TMV, Perkin Elmer, Netherlands). Cell viability was expressed as a percentage of the value of the cells without 6-OHDA treatment. The LC50 and EC50 were calculated by GraphPad Prism V5.0 (GraphPad Software, Inc., San Diego, Calif.).
To evaluate the cytotoxicity of five selected lignans of S. chinensis, SH-SY5Y cells were treated with various concentrations of the tested compounds for 12 h and the cell viability was measured using the MTT assay.
as §3

[5] = test system: SH-SY5Y cells; test: MTT neuroprotection against 6-OHDA-induced cytotoxicity; type: cell-based, Human; settings: for protection against 6-OHDA-induced damage (cell viability): 3, 6, 12, 25, 50 and 100 μM for 12 h before 400 μM 6-OHDA 4 h
Protocol: as §2, §4
To further study the neuroprotective activities of the five lignans against 6-OHDA-induced cytotoxicity, cells were treated with various concentrations (3, 6, 12, 25, 50 and 100 μM) of the tested compounds for 12 h before exposed to 400 μM 6-OHDA for 4 h.

[6] = test system: TH-positive neurons in the SNpc; type: in vivo, C57BL/6 mice; settings: 10 mg/kg/day i.g. positive control, then MPTP
Protocol: Male C57BL/6 mice (20±2 g body weight, 6-8 weeks of age) were purchased from the Laboratory Animal Center of Guangdong Province and were fed six animals per cage, under a 12 h light/dark cycle with ad libitum access to food and water. Mice were handled daily and allowed 3 days to acclimate before each treatment. Six groups of mice (n=7/group, total 42 mice) were assigned for the neuroprotective study in vivo. SchiA at different concentrations (30, 100 or 300 mg/kg/day), positive control drug (Selegiline, 10 mg/kg/day) or vehicle (Tween-80/ml propylene glycol/alcohol/5% PVA, 1:1:1:17, v/v/v/v) were administered by intragastric gavage (i.g.) daily for 14 days. Then mice were injected by intraperitoneal (i.p.) with 30 mg/kg MPTP hydrochloride (Sigma-Aldrich) or physiological saline daily on days 15-19 (total 5 days). In order to allow for the full conversion of MPTP to its active metabolite MPP^+, a further 3 days of resting period followed (Levites, Weinreb et al. 2001). All animal experiments were conducted according to the ethical guidelines for animal experiment of Jinan University. The experimental protocols were approved by the Ethics Committee for Animal Experiments of Jinan University (permit number 20110810).
Three days after MPTP treatment, animals were anesthetized by i.p. administration of […] chloral hydrate (10% (w/v) dissolved in distilled water) and perfused intracardially with 100 mL PBS (0.1 mmol/L, pH 7.4) followed by 150 mL 4% paraformaldehyde (PFA) in PBS. After intracardial perfusion, brains were collected and post-fixed in 4% PFA for another 24 h at 4° C., embedded in paraffin, and cut into 6 μm coronal sections encompassing the entire SNpc. As the decrease of TH-positive neurons in response to MPTP treatment is the most prominent at medial levels of the SNpc (Hayley, Crocker et al. 2004), the inventors selected the sections from the area encompassed between −3.08 and −3.20 from bregma to perform immunohistochemisty. Immunohistochemistry of brain tissues was performed as previously described (He, Yamauchi et al. 2008; Yokoyama, Takagi et al. 2008) with minor modifications. Sections were deparaffinized in xylene and rehydrated in a graded ethanol series. […] Non-specific protein binding was blocked with 10% bovine serum in PBS (0.01 M, pH 7.4). Between each treatment, the slides were washed at least three times with deionized water for 5 minutes. […] The results were analyzed by counting the numbers of TH-positive cells at ×10 magnifications on a stereomicroscope (BX51, Olympus Corp. Japan). TH-positive cells in 6 position-matched sections of each mouse were counted manually by operator who was blinded to the drug treatment. […]

N[C@@H](Cc1ccc(O)c(O)c1)C(=O)O [L-dopa]
deficit of locomotor activity of 6-OHDA-treated zebrafish ([1]; 150 μM positive control with 6-OHDA): rescued the deficit of locomotor activity of 6-OHDA-treated zebrafish to normal

CN1Cc2c(N)cccc2C(c2ccccc2)C1 (stereo not shown) [Nomifensine, nomifensine, reference compound]
6-OHDA-induced dopaminergic neuron loss (area of TH+ cells) [2]: considerable protection | deficit of locomotor activity of 6-OHDA-treated zebrafish ([1]; 3 μM positive control with 6-OHDA): rescued the deficit of locomotor activity of 6-OHDA-treated zebrafish to normal

COc1c2c(cc3c1-c1c(cc4c(c1OC)OCO4)C[C@H](C)[C@H](C)C3)OCO2 [SC, Schizandrin C]
EC50 ([3]; pre-treated 12 h, then 2 mM MPP+ 36 h): 15.3 µM | protection against MPP+-induced cell damage (cell viability) [3]: protect against MPP^+-induced cell damage in a dose-dependent manner | CC50 ([4]; treated 12 h, MTT, read-out: LC50 (the source's name)): 135 µM | protection against 6-OHDA-induced damage (cell viability) [5]: protected SH-SY5Y cells against 6-OHDA-induced damage in a dose-dependent manner | EC50 ([5]; pre-treated 12 h, then 400 μM 6-OHDA 4 h): 15.3 µM

COc1cc2c(c(OC)c1OC)-c1c(cc(OC)c(OC)c1OC)C[C@H](C)[C@H](C)C2 [Schizandrin A, reference compound]
protection against MPP+-induced cell damage (cell viability) [3]: did not show protective effects | CC50 [4]: 233 µM | protection against 6-OHDA-induced damage (cell viability) [5]: did not show protective effects

COc1cc2c(c(OC)c1OC)-c1c(cc3c(c1OC)OCO3)CC(C)C(C)C2 (stereo not shown) [Schizandrin B, reference compound]
protection against MPP+-induced cell damage (cell viability) [3]: did not show protective effects | CC50 [4]: 189 µM | protection against 6-OHDA-induced damage (cell viability) [5]: did not show protective effects

COc1cc2c(c(OC)c1OC)-c1c(cc(OC)c(OC)c1OC)C[C@](C)(O)[C@@H](C)C2 [Schizandrol A, reference compound]
protection against MPP+-induced cell damage (cell viability) [3]: did not show protective effects | CC50 [4]: 155 µM | protection against 6-OHDA-induced damage (cell viability) [5]: did not show protective effects

C#CCN(C)[C@H](C)Cc1ccccc1 [selegiline, reference compound]
TH-positive neurons in SNpc [6]: 80±15 cells/section

AKT inhibitor IV [reference compound]
effect on the protective effect of SchiA on MPP+-induced cytotoxicity ([3]; 2 μM 1 h pre-incubation, then SchiA 12 h, 2 mM MPP+ 36 h, MTT): clearly abrogate the protective effect of SchiA
